Laboratory results from US9096689B2, “Methods and compositions for inhibiting angiogenesis” (NORTHWESTERN UNIVERSITY, priority 2007, dated 2015).
“Also recorded” adds a separate entry of the source.

Experiments:
[1] = system: Human microvascular endothelial cells; test: endothelial cell chemotaxis assay (bFGF-induced migration); assay type: cell-based; details: for inhibition of bFGF-induced migration (chemotaxis): peptide at increasing concentrations; for inhibitor activity on bFGF-induced migration compared with native PEDF: vs rhPEDF at 20 nM
Procedure: The initial testing was done in the endothelial cell chemotaxis assay. Human microvascular endothelial cells to traverse gelatinized microporous membrane up the gradient of bFGF was tested in the absence and in the presence of the 14-, 18- and 23-mer peptides (FIG. 3). Human microvascular endothelial cells were plated on the lower side of gelatinized microporous membrane and allowed to adhere. The peptides (14-, 18 and 23-mer) were added at increasing concentrations to the opposite side of the gelatinized microporous membrane ([…]), alone, or in combination with basic fibroblast growth factor (bFGF, 10 ng/ml). The cells migratied to the opposite side of the membrane were counted in 10 high-powered (100×) fields. Every condition was tested in quadruplicate. bFGF-induced chemotaxis is shown (top line in each graph). Basal migration levels (0.1% bovine serum albumin) are indicated with the dotted line. Triangles (▴) show peptide alone; while squares (▪) show peptide with bFGF. The solid line (below the top line mentioned above) indicates the effect of the recombinant human PEDF (rhPEDF) at 20 nM.
Several truncated variants of P18 (SEQ ID NO:2) were generated, including an 11-mer (NFGYDLYRVRS; SEQ ID NO:102) which has the first 11 bases of P18, and an 8-mer, (NFGYDLYR; SEQ ID NO:119), which has the first 8 bases of P18. These variants were screened in endothelial cell apoptosis and chemotaxis assays, seeking those that inhibit chemotaxis and induce apoptosis with specific activity similar or better than that of P18. In particular, microvascular endothelial cells were plated in inverted modified Boyden chambers, and chemotaxis induced with bFGF (10 ng/ml). The cells migrated to bFGF were counted in 10 high-powered fields. Results for the 8-mer (SEQ ID NO:119) and the 11-mer (SEQ ID NO:102) are shown in FIGS. 12A and 12B respectively.

[2] = system: Human microvascular endothelial cells; test: endothelial cell apoptosis assay (ApopTag / TUNEL); assay type: cell-based; details: for induction of endothelial cell apoptosis: HMVEC, overnight, low serum media, with or without bFGF, FIG. 4
Procedure: Confluent HMVEC cells growing on coverslips were incubated overnight in low serum media (0.2% FBS in MCDB)±PEDF peptides in the presence or absence of bFGF. ApopTag Fluorescein kit (Chemicon) was used to determine apoptotic cells. […] 3-5 fields (10×) were analyzed with epi-fluorescent microscope, and cells were counted using MetaMorph software. Apoptotic (FITC positive) cells were calculated as a % of total cells stained with PI per field.
The ability of the 34-mer fragments to induce endothelial cell apoptosis was next measured (FIG. 4).
In further experiments, human microvascular endothelial cells were treated with PEDF18 (SEQ ID NO:2) and PEDF11 (SEQ ID NO:102). Apoptosis was measured after 24 hours with terminal dUTP Nick-end Labeling (TUNEL) assay. […] It is noted that one advantage of PEDF11 over longer PEDF derivatives is in that this sequence is below critical length so it can be non-immunogenic during continuous applications.

angiogenesis = test: directed in vivo angiogenesis assay (DIVAA), s.c. matrigel angioreactors; set-up: species or system nude mice; details: for anti-angiogenic effect in DIVAA: bFGF 37.5 and VEGF 12.5 ng/ml, day 7
Procedure: FIGS. 5A and 5B show the results of a corneal angiogenesis assay. The 34 mer and 18-mer peptides were incorporated with bFGF (50 ng/pellet) into slow-release sucralfate pellets, which were surgically implanted into the cornea of anesthetized mice, 0.5-1 mm from the vascular limbus. The responses were scored on day 5 post implantation and the ingrowth of blood vessels from the cornea to the pellet was considered a positive response. The responses were scored as positive corneas of total implanted: statistical significance was evaluated with Fisher's Exact test. P<0.05 was considered significant. […] The peptides were incorporated with a mix of bFGF and VEGF (37.5 and 12.5 ng/ml, respectively) into angioreactors filled with matrigel. The reactors were implanted s.c onto the flanks of the nude mice. On day 7, The reactors were harvested and photographed (5C). Endothelial cells collected from implants by dilution/centrifugation, stained with FITC-lectin and quantified by flow cytometry (5D).
Finally, the peptides were tested in vivo, in the corneal angiogenesis and directed in vivo angiogenesis assay (DIVAA). The 34-mer derivatives were compared in vivo with parental PEDF peptide, the 34-mer. FIG. 5 A, B: Corneal angiogenesis assay: the peptides were incorporated with bFGF (50 ng/pellet) into slow-release sucralfate pellets, which were surgically implanted into the cornea of anesthetized mice, 0.5-1 mm from the vascular limbus. The responses were scored on day 5 post implantation and the ingrowth of blood vessels from the cornea to the pellet was considered a positive response. The responses were scored as positive corneas of total implanted: statistical significance was evaluated with Fisher's Exact test. P<0.05 was considered significant. […] 5C, D. DIVAA of the 34-mer and derivative peptides. The peptides were incorporated with a mix of bFGF and VEGF (37.5 and 12.5 ng/ml, respectively) into angioreactors filled with matrigel. The reactors were implanted s.c onto the flanks of the nude mice. On day 7, the reactors were harvested and photographed (5C). Endothelial cells collected from implants by dilution/centrifugation, stained with FITC-lectin and quantified by flow cytometry (5D).

corneal angiogenesis = corneal angiogenesis assay; assay type: in vivo, mice; details: bFGF 50 ng/pellet; scored day 5
Procedure: FIGS. 5A and 5B show the results of a corneal angiogenesis assay. The 34 mer and 18-mer peptides were incorporated with bFGF (50 ng/pellet) into slow-release sucralfate pellets, which were surgically implanted into the cornea of anesthetized mice, 0.5-1 mm from the vascular limbus. The responses were scored on day 5 post implantation and the ingrowth of blood vessels from the cornea to the pellet was considered a positive response. The responses were scored as positive corneas of total implanted: statistical significance was evaluated with Fisher's Exact test. P<0.05 was considered significant. […] Endothelial cells collected from implants by dilution/centrifugation, stained with FITC-lectin and quantified by flow cytometry (5D).
Finally, the peptides were tested in vivo, in the corneal angiogenesis and directed in vivo angiogenesis assay (DIVAA). […] The responses were scored on day 5 post implantation and the ingrowth of blood vessels from the cornea to the pellet was considered a positive response. The responses were scored as positive corneas of total implanted: statistical significance was evaluated with Fisher's Exact test. […] Endothelial cells collected from implants by dilution/centrifugation, stained with FITC-lectin and quantified by flow cytometry (5D).

[3] = system: PC-3 prostate cancer xenografts; test: tumorigenicity assay, PC-3 xenografts; assay type: in vivo, nude mice; details: 10 mg/kg, i.p.; for growth of PC-3 prostate cancer xenografts: from day 5 post injection
Procedure: PC-3 cells (2×10^6/site) were implanted into hindquarters of nude mice. On day 5 post injection, treatment was commenced with 34-mer and 18-mer (10 mg/kg, i.p.).

[4] = system: Mouse renal carcinoma cells (Renca, ATCC); test: orthotopic renal cell carcinoma xenograft model (tumor growth and metastases); assay type: in vivo
Procedure: Mouse renal carcinoma cells (Renca, ATCC) were injected under the kidney capsule (0.5×10^6/site). Animals were randomly divided into 6 groups (8 per group) and the treatment started 5 days after inoculation (intraperitoneal injections). The following treatment groups were included: P18 (SEQ ID NO:2; 10 mg/kg); P18 (60 mg/kg); Rapamycin (R, 0.5 mg/kg); R+P18 (10 mg/kg) and R+P18 (60 mg/kg). The control group was treated with scrambled peptide, YFNGRSSPSNTNTYYVDRL (SEQ ID NO:51). After 17 days of treatment both kidneys were removed. To assess tumor growth, the weight of healthy kidney was subtracted from the weight of tumor-inoculated kidney, for each animal. The difference represents the weight of the tumor.
Metastases formation was also examined in the liver and lungs of the in the control treated animals and the groups treated with P18 and scrambled peptide (FIG. 9). The % affected organs is indicated under the representative images.

[5] = system: choroidal neovascularization; test: laser-induced choroidal neovascularization (CNV) mouse model; assay type: in vivo, mice
Procedure: This Example describes further characterization of P18 (PEDF18) and fragments thereof. […] Intravitreous injections of 1 μg (n=24), 10 μg (n=24) of PEDF18, or vehicle (n=21) were given at the day of laser photocoagulation-induced rupture of Bruch's membrane. Two weeks after laser induction, mice were euthanized and the area of CNV was measured. […] NV=neovascularization.

Question: How did the “inhibition of bFGF-induced migration (chemotaxis)” value (“inhibition” for short) ([1]; bFGF 10 ng/ml) turn out when AAAVSNFGYDLYRVRSSTSPTTN [23-mer] was run?
Answer: comparable to PEDF at low concentrations and lost its inhibitory activity at higher doses

Question: What about the “induction of endothelial cell apoptosis” value [2] of the same substance?
Answer: failed to induced apoptosis

Question: What about the “anti-angiogenic effect in DIVAA” value (angiogenesis) of the same substance?
Answer: failed to inhibit angiogenesis

Question: Which “inhibition” value ([1]; bFGF 10 ng/ml) does the source give for NFGYDLYRVRSSTSPTTN [18-mer] here?
Answer: inhibited bFGF-induced migration in a dose-dependent manner

Question: What about the “inhibitor activity on bFGF-induced migration compared with native PEDF” value [1] of the same substance?
Answer: superior to that of native PEDF

Question: What about the “induction of endothelial cell apoptosis” value [2] of the same substance?
Answer: more potent than the parental PEDF and as potent as the 34-mer

Question: And the “anti-angiogenic effect in corneal angiogenesis assay” value (corneal angiogenesis)?
Answer: showed the best anti-angiogenic characteristics

Question: And the “anti-angiogenic effect in DIVAA” value (angiogenesis)?
Answer: showed the best anti-angiogenic characteristics

Question: What about the “blocking of VEGF-induced angiogenesis” value (angiogenesis; in vitro and in vivo in the subcutaneous matrigel plug assays) of the same substance?
Answer: effectively blocks VEGF-induced angiogenesis

Question: And the “activity in blocking angiogenesis compared with the 34-mer” value (angiogenesis; mouse, in vivo)?
Answer: more active in blocking angiogenesis than the original 34-mer

Question: What about the “growth of PC-3 prostate cancer xenografts” value [3] of the same substance?
Answer: significantly inhibited the growth

Question: What about the tumor volume ([3]; FIG. 6) of the same substance?
Answer: substantial reduction in tumor volume

Question: And the tumor weight ([4]; P18 alone, i.p., 17 days of treatment, vs scrambled peptide)?
Answer: significant (P<0.0003) decrease in tumor weight

Question: And the liver metastases ([4]; P18 treatment, FIG. 9)?
Answer: eradicated liver metastases

Question: What about the “area of CNV at laser sites” value ([5]; intravitreous 1 μg or 10 μg, two weeks after laser induction, vs vehicle) of the same substance?
Answer: significantly smaller areas of neovascularization

Question: What about the “choroidal neovascularization (overall effect)” value ([5]; mouse, laser-induced, listed as PEDF18) of the same substance?
Answer: suppresses choroidal neovascularization; also recorded: effectively alleviated laser-induced choroidal neovascularization (CNV)

Question: For NFGYDLYRVRS [PEDF11], which “concentration at which chemotaxis is inhibited” value ([1]; bFGF 10 ng/ml, FIG. 12B) is on record?
Answer: 1 to 10 nM

Question: What about the “inhibition” value ([1]; bFGF 10 ng/ml) of the same substance?
Answer: dose-dependent inhibition

Question: And the “efficacy compared with P18” value ([1]; chemotaxis inhibition and EC apoptosis, vs P18 (FIG. 3))?
Answer: comparable to that of P18

Question: And the “concentration causing EC apoptosis” value [2]?
Answer: 10 to 100 nM

Question: Which results are given for DLYRVRSSTSPTTN [14-mer]?
Answer: inhibition of bFGF-induced migration (chemotaxis) ([1]; bFGF 10 ng/ml): inhibited bFGF-induced migration in a dose-dependent manner; inhibitor activity on bFGF-induced migration compared with native PEDF [1]: superior to that of native PEDF; induction of endothelial cell apoptosis [2]: very weak induction of apoptosis

Question: For “34-mer: 34-mer PEDF peptide (amino acids 44-77 at the N-terminus), parental PEDF peptide (DPFFKVPVNKLAAAVSNFGYDLYRVRSSMSPTTN) [reference compound]”, which “growth of PC-3 prostate cancer xenografts” value [3] is on record?
Answer: only marginal effect
